Test results from patent publication US10335372B2, “Compositions with modified nucleases targeted to viral nucleic acids and methods of use for prevention and treatment of viral diseases” (priority 2004, dated 2019).
Where “and” joins values, the source holds several entries; their conditions need not be identical. Identical values can stand only once. Like-named read-outs stand apart in the source and are kept apart here.

Assays:
HepG2 VV-infected cells = type: cell-based, human; settings: 30 min incubation
Description: (§1) The cellular uptake of bovine DNase I (DNase), DNase-PEG and DNase-PEG-R8 complex is evaluated using the HepG2 cell line (human hepatocarcinoma cells ATCC, No-HB-8065). […] DNase I is labeled with fluorescent rodamine (*) according to the manufacturer's instruction (Pierce, Inc., Rockford, Ill.). Penetration of *DNase-PEG-K-R8 into HepG2 cells is compared to that of *DNase and *DNase-PEG after 30 min of incubation with HepG2 cells in DMEM at 37° C.
(§2) To maintain the cells the growth medium 199 is used.

HepG2 intact cells = test: Cellular uptake of rhodamine-labeled DNase complexes, fluorimeter; type: cell-based, human; settings: 30 min incubation
Description: as §1, §2

[1] = Cellular uptake of fluorescamine-labeled RNase I variants; type: cell-based; settings: fluorescamine label
ssRNA corona virus [2] = test: Antiviral activity of labeled RNase I variants against ssRNA corona virus; type: cell-based
cytomegalovirus (CMV) = test: Anti-CMV activity in HEP-2 cells; settings: for CMV Titer: single values
mouse leukemia virus [3] = test: Prevention of leukemia development in AKR mice; type: in vivo; settings: 5,000 KuU/g s.c. every second day for a month
Description: Leukemia in AKR mice is known to be promoted by mouse leukemia virus. The lymphoid tissues of AKR mice contain mouse leukemia virus, and spontaneously develop leukemia, at the age of 6-8 months.

mouse leukemia virus [4] = test: Treatment of viral lymphatic leukemia in 9-10 month old AKR mice; type: in vivo; settings: 5 kUA/g s.c. every four days
Description: To study the treatment effect of DNase and TDNase, the experiment is carried out on 9-10 month old AKR mice with manifestations of lymphoid leukemia. A significant increase in the size of lymph nodes, thymus, liver and spleen and high mitotic index in lymphoid tissues is observed in these animals. The treated groups include 24 mice in each while the control group includes 19 mice. Administration of DNase I and TDNase every four days s.c., in a dose of 5,000 KuU/g body weight, results in a decrease of lymphatic tissues and mitotic index to normal levels, and in an increase in longevity of animals. However, a more profound effect is obtained in animals receiving TDNase than DNase, and receiving TDNase-PEG than TDNase, as is shown in Table 25.

cytomegalovirus = test: Antiviral activity of modified DNase I against cytomegalovirus in cell culture; settings: 500 UA/ml, 48 h at 37° C.
Vaccinia virus = type: cell-based; settings: 500 KuU/ml, 48 h at 37° C.
[5] = tested on: Herpes simplex virus, type I (HSV-1); test: Anti-HSV-1 activity in HEP-2 cells; type: cell-based; settings: for HSV Titer: single values
dsDNA = settings: physiological monovalent cation strength; cited from earlier work
S-protein = S-protein (Bos taurus, UniProt P61823); settings: N-terminal residues 1-15; cited from earlier work
FMD virus = type: cell-based
double-stranded RNA = settings: physiological salt conditions; double-stranded RNA substrate; cited from earlier work
West Nile virus = test: Antiviral effect of modified RNase I against West Nile virus in newborn rabbit kidney cells; settings: average of four replicate determinations
[6] = tested on: Influenza virus A/Aichi/2/68/H3N2; type: in vivo; settings: mice, single values
FMDV of O-type = settings: guinea pig, in vivo
dsRNA reovirus [7] = test: Combination of human RNase I and human RNase III against reovirus in HEP-2 cells; type: cell-based; settings: 200 UA/ml
Description: The reovirus stock preparation used in this example has a titer of 5.5 log CPD50/0.1 ml.

dsRNA reovirus [8] = test: RNase A on virus replication in HEP-2 cells; settings: 200 UA/ml
[9] = tested on: ssRNA equine encephalitis virus; type: cell-based; settings: 500 UA/ml
ssRNA coronavirus = test: RNase A on virus replication in HEP-2 cells; settings: 200 UA/ml
honeybee paralysis virus = type: in vivo, honeybees; settings: of 100 infected
Description: Infectious titer of HBVP is […] per ml. The honeybees are infected by feeding the viral emulsion. Insects are sprayed by an aerosol of enzyme diluted in physiological solution 3 hours before the inoculation of virus. […] Treatment of insects 6 hours after inoculation of virus still protected them from development of disease.

ssRNA corona virus [10] = test: Antiviral efficacy of pegylated human RNase I

Molecule: *DNase
- OD (430 nm), cellular uptake (HepG2 VV-infected cells): 48
- OD (430 nm), cellular uptake (HepG2 intact cells): 37

Molecule: *RNase I: fluorescamine-labeled human RNase I
- Cellular Uptake [OD430 nm] [1]: 110
- Average Titer (ssRNA corona virus [2]): 5.4

Molecule: DNase
- Average Titer (cytomegalovirus (CMV); 50 UA/ml): 5.1 logTCD50/ml
- CMV Titer (cytomegalovirus (CMV); 50 UA/ml): 5.1 logTCD50/ml and 5.0 logTCD50/ml
- Average Titer (cytomegalovirus (CMV); 100 UA/ml): 4.5 logTCD50/ml
- CMV Titer (cytomegalovirus (CMV); 100 UA/ml): 4.6 logTCD50/ml and 4.5 logTCD50/ml and 4.7 logTCD50/ml
- Average Titer (cytomegalovirus (CMV); 500 UA/ml): 3.8 logTCD50/ml
- CMV Titer (cytomegalovirus (CMV); 500 UA/ml): 3.8 logTCD50/ml and 3.9 logTCD50/ml and 3.7 logTCD50/ml
- Average Titer (cytomegalovirus (CMV); [0] UA/ml): 5.5 logTCD50/ml
- CMV Titer (cytomegalovirus (CMV); [0] UA/ml): 5.4 logTCD50/ml and 5.6 logTCD50/ml and 5.5 logTCD50/ml
- development of leukemia (mouse leukemia virus [3]): preclude the development of leukemia
- Liver (mouse leukemia virus [4]): 941 ± 33 g
- Longevity (weeks) (mouse leukemia virus [4]): 16 ± 1.0 weeks
- Mitotic Index (mouse leukemia virus [4]): 0.18 ± 0.02
- Average Titer (cytomegalovirus): 6.5 logTCD50/0.1 ml
- Virus Titer (cytomegalovirus; single values): 6.3 logTCD50/0.1 ml and 6.4 logTCD50/0.1 ml and 6.5 logTCD50/0.1 ml
- Average log TCD50 (Vaccinia virus): 4.7 log TCD50
- log TCD50 (Vaccinia virus; single values): 4.6 log TCD50 and 4.8 log TCD50
- Average Titer ([5]; 10 UA/ml): 5.4 logTCD50/ml
- HSV Titer ([5]; 10 UA/ml): 5.4 logTCD50/ml and 5.5 logTCD50/ml and 5.3 logTCD50/ml
- Average Titer ([5]; 50 UA/ml): 5.1 logTCD50/ml
- HSV Titer ([5]; 50 UA/ml): 5.1 logTCD50/ml and 5.0 logTCD50/ml
- Average Titer ([5]; 100 UA/ml): 4.5 logTCD50/ml
- HSV Titer ([5]; 100 UA/ml): 4.6 logTCD50/ml and 4.5 logTCD50/ml and 4.7 logTCD50/ml
- Average Titer ([5]; 500 UA/ml): 3.8 logTCD50/ml
- HSV Titer ([5]; 500 UA/ml): 3.8 logTCD50/ml and 3.9 logTCD50/ml and 3.7 logTCD50/ml

Molecule: EndoG: sugar-nonspecific 29 kDa human endonuclease
- inhibition (dsDNA): about 15 fold

Molecule: KETAAAKFERQHMDS [bovine S-peptide]
- Kd (S-protein): < 1 nM

Molecule: RNase: recombinant / wild-type human RNase I (Examples 22, 30, 31)
- Titer (FMD virus): 7.3; 7.1; 6.8 logTCD50/ml
- enzymatic activity relative to RNase A (double-stranded RNA): about 500 times
- logTCD50/ml (West Nile virus; 100 UA/ml): 7.7 logTCD50/ml
- logTCD50/ml (West Nile virus; 250 UA/ml): 7.0 logTCD50/ml
- Titer in lungs ([6]; treatment i.n.): 4.5 log TCD50 and 4.0 log TCD50 and 4.3 log TCD50
- Titer in lungs ([6]; treatment i.p.): 4.7 log TCD50 and 5.0 log TCD50 and 4.5 log TCD50
- Survived (FMDV of O-type): 40
- duration of preventive effect after a single injection (FMDV of O-type): at least 4 hours
- animals that developed FMD (FMDV of O-type; sc): 8
- Survived (FMDV of O-type; record 2): 32
- Average Titer (dsRNA reovirus [7]): 4.0 logTCD50/0.1 ml
- Titer (dsRNA reovirus [7]; single values): 3.9 logTCD50/0.1 ml and 4.0 logTCD50/0.1 ml and 4.1 logTCD50/0.1 ml

B1: RNase A: bovine RNase A (Examples 21, 23, 24, 28, 37, 40) (protein, UniProt P61823 27-150, looked up)
Ribonuclease pancreatic: KETAAAKFERQHMDSSTSAASSSNYCNQMMKSRNLTKDRCKPVNTFVHESLADVQAVCSQKNVACKNGQTNCYQSYSTMSITDCRETGSSKYPNCAYKTTQANKHIIVACEGNPYVPVHFDASV
- Average Titer (dsRNA reovirus [8]): 4.0 logTCD50/0.1 ml
- Titer (dsRNA reovirus [8]; single values): 4.0 logTCD50/0.1 ml and 4.1 logTCD50/0.1 ml and 3.9 logTCD50/0.1 ml
- Average Titer [9]: 5.26 logTCD50/0.1 ml
- Titer ([9]; single values): 5.2 logTCD50/0.1 ml and 5.4 logTCD50/0.1 ml
- Average Titer (ssRNA coronavirus): 1.5 logTCD50/0.1 ml
- Titer (ssRNA coronavirus; single values): 1.4 logTCD50/0.1 ml and 1.6 logTCD50/0.1 ml and 1.5 logTCD50/0.1 ml
- Surviving Honeybees (honeybee paralysis virus; 200 UA/ml): 4
- Surviving Honeybees (honeybee paralysis virus; 500 UA/ml): 11
- Surviving Honeybees (honeybee paralysis virus; 1000 UA/ml): 67
- Surviving Honeybees (honeybee paralysis virus; 1500 UA/ml): 100

B2: pegylated RNase I: wild-type recombinant human RNase I reacted with mPEG-SS (conjugate, UniProt P07998 29-156, looked up)
Ribonuclease pancreatic: KESRAKKFQRQHMDSDSSPSSSSTYCNQMMRRRNMTQGRCKPVNTFVHEPLVDVQNVCFQEKVTCKNGQGNCYKSNSSMHITDCRLTNGSRYPNCAYRTSPKERHIIVACEGSPYVPVHFDASVEDST
modifications: mPEG-SS
- antiviral efficacy compared with unpegylated enzyme (ssRNA corona virus [10]): enhances its antiviral efficacy
